Results taken from ChEMBL document CHEMBL3885861, “Open TG-GATES”.

Organism: Rattus norvegicus
Experiment: Open TG-GATES - Regimen: Daily Repeat
Format: toxicity, organism-based, Sprague-Dawley
Design: regimen Daily Repeat, gender Male, age 6 weeks
Settings: in vivo, iv, route intravenous injection; for gamma-GTP / ALP / ALT / BUN / CRE / DBIL / GLC / IP / K / Na / PL / RALB / TBIL / TC / TG / TP / AST / LDH: tissue Plasma; for APTT / Bas / Eos / Fbg / Hb / Ht / Lym / MCHC / MCV / Mono / Neu / PT / Plat / RBC / Ret / WBC: tissue Blood; for KIDNEY_L / KIDNEY_R / KIDNEY_TOTAL: tissue Kidney; for LIVER: tissue Liver
[1] = 10 mg/kg, 72 h, dose level High, time 3 day
[2] = 10 mg/kg, […], dose level High, time 7 day
[3] = 10 mg/kg, […], dose level High, time 14 day
[4] = 10 mg/kg, […], dose level High, time 28 day

CARBOPLATIN gave a gamma-GTP (3 mg/kg, […], dose level Middle, time 28 day) of 2 IU/L, a TERMINAL_BW [1] of 210.3 g and an APTT [1] of 23.5 s. The Bas [1] was 0%, the Eos [1] was 1.2% and the Fbg [1] was 288 mg/dL. It also gave a Hb [1] of 13 g/dL, a Ht [1] of 39.9% and a Lym [1] of 85.8%. For the same sequence, the MCHC [1] was 32.7%, the MCV [1] was 62.8 fL and the Mono [1] was 3.2%. It also gave a Neu [1] of 8.8%, a PT [1] of 16.4 s and a Plat [1] of 122.5 x10_4/uL. For the same sequence, the RBC [1] was 635.4 x10_4/ul, the Ret [1] was 2.7% and the WBC [1] was 75.4 x10_2/uL. The KIDNEY_L [1] was 0.9 g, the KIDNEY_R [1] was 1 g and the KIDNEY_TOTAL [1] was 1.9 g. The LIVER [1] was 9.3 g, the ALP [1] was 1408.4 IU/L and the ALT [1] was 33.8 IU/L. It also gave a BUN [1] of 16.4 mg/dL, a CRE [1] of 0.2 mg/dL and a DBIL [1] of 0.002 mg/dL. For the same sequence, the GLC [1] was 170.4 mg/dL, the IP [1] was 7 mg/dL and the K [1] was 4.6 meq/L. It also gave a Na [1] of 140.2 meq/L, a PL [1] of 129.6 mg/dL and an RALB [1] of 3.1 g/dL. The TBIL [1] was 0.008 mg/dL, the TC [1] was 63.2 mg/dL and the TG [1] was 84.4 mg/dL. It also gave a TP [1] of 5.5 g/dL, a gamma-GTP [1] of 1.4 IU/L and a TERMINAL_BW [2] of 215.5 g. For the same sequence, the TERMINAL_BW [3] was 246.4 g, the TERMINAL_BW [4] was 260.5 g and the APTT [2] was 27.1 s. It also gave a Bas [2] of 0%, an Eos [2] of 0.8% and a Fbg [2] of 285.8 mg/dL. For the same sequence, the Hb [2] was 13.7 g/dL, the Ht [2] was 41.4% and the Lym [2] was 83.6%. It also gave an MCV [2] of 62.3 fL, a Mono [2] of 4.8% and a Neu [2] of 9.6%. For the same sequence, the PT [2] was 15.7 s, the Plat [2] was 124.5 x10_4/uL and the RBC [2] was 665.8 x10_4/ul. The Ret [2] was 1.5%, the WBC [2] was 46.7 x10_2/uL and the APTT [3] was 26.8 s. It also gave a Bas [3] of 0%, an Eos [3] of 0.4% and a Fbg [3] of 299.6 mg/dL. The Hb [3] was 14.1 g/dL, the Lym [3] was 80.8% and the MCHC [3] was 33.9%. For the same sequence, the MCV [3] was 59.3 fL, the Mono [3] was 4.6% and the Plat [3] was 50.2 x10_4/uL. For the same sequence, the RBC [3] was 701 x10_4/ul, the Ret [3] was 0.8% and the WBC [3] was 57.1 x10_2/uL. The APTT [4] was 25.4 s, the Bas [4] was 0% and the Eos [4] was 0%. The Fbg [4] was 275.2 mg/dL, the Hb [4] was 11.8 g/dL and the Ht [4] was 33.8%. The Lym [4] was 81%, the MCHC [4] was 34.8% and the MCV [4] was 55.8 fL. The Mono [4] was 3.6%, the PT [4] was 15.6 s and the Plat [4] was 66.5 x10_4/uL. It also gave an RBC [4] of 607.8 x10_4/ul, a Ret [4] of 3.1% and a WBC [4] of 60.4 x10_2/uL. It also gave a KIDNEY_L [2] of 0.9 g, a KIDNEY_R [2] of 1 g and a KIDNEY_TOTAL [2] of 1.9 g. It also gave a KIDNEY_L [3] of 1.1 g, a KIDNEY_R [3] of 1.1 g and a KIDNEY_TOTAL [3] of 2.2 g. For the same sequence, the KIDNEY_L [4] was 1.2 g, the KIDNEY_R [4] was 1.2 g and the KIDNEY_TOTAL [4] was 2.4 g. It also gave an LIVER [2] of 8.8 g, an ALP [2] of 1401.8 IU/L and an ALT [2] of 41.4 IU/L. For the same sequence, the AST [2] was 102 IU/L, the CRE [2] was 0.2 mg/dL and the DBIL [2] was 0.002 mg/dL. For the same sequence, the GLC [2] was 170.8 mg/dL, the IP [2] was 7.3 mg/dL and the K [2] was 4.4 meq/L. It also gave a Na [2] of 140.4 meq/L, a PL [2] of 118.6 mg/dL and an RALB [2] of 3.2 g/dL. It also gave a TBIL [2] of 0.012 mg/dL, a TC [2] of 66 mg/dL and a TG [2] of 38.2 mg/dL. For the same sequence, the TP [2] was 6 g/dL, the gamma-GTP [2] was 1 IU/L and the ALP [3] was 1127 IU/L. It also gave an ALT [3] of 48 IU/L, an AST [3] of 93.2 IU/L and a BUN [3] of 16.6 mg/dL. For the same sequence, the CRE [3] was 0.2 mg/dL, the DBIL [3] was 0 mg/dL and the GLC [3] was 170.4 mg/dL. The IP [3] was 6.6 mg/dL, the K [3] was 4.5 meq/L and the LDH [3] was 161 IU/L. For the same sequence, the PL [3] was 139.8 mg/dL, the RALB [3] was 3.2 g/dL and the TBIL [3] was 0.016 mg/dL. The TC [3] was 74.8 mg/dL, the TG [3] was 83.4 mg/dL and the TP [3] was 5.8 g/dL. It also gave a gamma-GTP [3] of 1.8 IU/L, an ALP [4] of 682.8 IU/L and an ALT [4] of 40 IU/L. For the same sequence, the AST [4] was 97.8 IU/L, the BUN [4] was 22 mg/dL and the CRE [4] was 0.2 mg/dL. The DBIL [4] was 0.016 mg/dL, the GLC [4] was 170 mg/dL and the IP [4] was 6.2 mg/dL. The K [4] was 4.5 meq/L, the LDH [4] was 533 IU/L and the PL [4] was 127.8 mg/dL. For the same sequence, the RALB [4] was 3 g/dL, the TBIL [4] was 0.052 mg/dL and the TC [4] was 78.6 mg/dL. It also gave a TG [4] of 48.8 mg/dL, a TP [4] of 6 g/dL and a gamma-GTP [4] of 1.8 IU/L.
